Measured values: patent US20140303164A1, “THERAPEUTIC COMPOUNDS” (Gilead Sciences, Inc., priority 2013, published 2014)

Columns and labels:
[1] = test system: HIV-IIIb; experiment: Test A: Antiviral Assay in MT4 Cells; format: cell-based, HIV-1; settings: Human immunodeficiency virus 1, IIIB, MT4, 120 h; for inhibition at 0.2 µM: read-out: % inhibition at 0.2 μM; for inhibition at 2 µM: read-out: % inhibition at 2 μM
Procedure: Test A: Antiviral Assay in MT4 Cells
MT-4 cells were next mixed with HIV-IIIb at an m.o.i of 0.003 for 1 hour, after which time 35 μL of virus/cell mixture (2000 cells) was immediately added to each well containing 40 μL of diluted compound. The plates were then incubated at 37° C. for 5 days. […] Cell lysis was carried out by incubating at room temperature for 10 min and then chemiluminescence was read.

[2] = Test B: Cytotoxicity Assay; format: cell-based; settings: human, uninfected MT-4 cells, same protocol as Test A
Outline: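 Uninfected MT-4 cells (2000 per well) incubated with diluted compound at 37° C. for 5 days, following the antiviral protocol without HIV-IIIb.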

Compound | inhibition at 0.2 µM [1] | inhibition at 2 µM [1] | CC50 at 5 days [2]
COc1ccc(-c2ccc(C#CC(C)(C)O)nc2[C@H](Cc2cc(F)cc(F)c2)NC(=O)Cn2nc(C(F)F)c3c2C(F)(F)[C@@H]2C[C@H]32)c2c1c(N)nn2C [Compound 114G, N—((S)-1-(3-(3-amino-4-methoxy-1-methyl-1H-indazol-7-yl)-6-(3-hydroxy-3-methylbut-1-yn-1-yl)pyridin-2-yl)-2-(3,5-difluorophenyl)ethyl)-2-((3b-S,4aR)-3-(difluoromethyl)-5,5-difluoro-3b,4,4a,5-tetrahydro-1H-cyclopropa[3,4]cyclopenta[1,2-c]pyrazol-1-yl)acetamide] | 100% | 100% | 14.8 µM
Cn1nc(NS(C)(=O)=O)c2c(Cl)ccc(-c3ccc(C#CC(C)(C)O)nc3[C@H](Cc3cc(F)cc(F)c3)NC(=O)Cn3nc(C(F)F)cc3C(F)F)c21 [Compound 189, (S)-2-(3,5-bis(difluoromethyl)-1H-pyrazol-1-yl)-N-(1-(3-(4 chloro-1-methyl-3-(methylsulfonamido)-1H-indazol-7-yl)-6-(3-hydroxy-3-methylbut-1-yn-1-yl)pyridin-2-yl)-2-(3,5-difluorophenyl)ethyl)acetamide] | 88% | 88% | 17.2 µM
Cn1nc(NS(C)(=O)=O)c2c(Cl)ccc(-c3ccc(C#CC(C)(C)O)nc3[C@H](Cc3cc(F)cc(F)c3)NC(=O)Cn3nc(N)c4c3C(F)(F)[C@@H]3C[C@H]43)c21 [Compound 148B, 2-((3bS,4aR)-3-amino-5,5-difluoro-3b,4,4a,5-tetrahydro-1H-cyclopropa[3,4]cyclopenta[1,2-c]pyrazol-1-yl)-N—((S)-1-(3-(4-chloro-1-methyl-3-(methylsulfonamido)-1H-indazol-7-yl)-6-(3-hydroxy-3-methylbut-1-yn-1-yl)pyridin-2-yl)-2-(3,5-difluorophenyl)ethyl)acetamide] | 83% | 83% | 23.3 µM
CC(C)(O)C#Cc1ccc(-c2cccn3c(NCC(F)(F)F)nnc23)c([C@H](Cc2cc(F)cc(F)c2)NC(=O)Cn2nc(C(F)F)c3c2C(F)(F)[C@@H]2C[C@H]32)n1 [Compound 117F, 2-((3b-S,4aR)-3-(difluoromethyl)-5,5-difluoro-3b,4,4a,5-tetrahydro-1H-cyclopropa[3,4]cyclopenta[1,2-c]pyrazol-1-yl)-N—((S)-2-(3,5-difluorophenyl)-1-(6-(3-hydroxy-3-methylbut-1-yn-1-yl)-3-(3-((2,2,2-trifluoroethyl)amino)-[1,2,4]triazolo[4,3-a]pyridin-8-yl)pyridin-2-yl)ethyl)acetamide] | 93% | 100% | 27.8 µM
Cn1nc(NS(C)(=O)=O)c2c(Cl)ccc(-c3ccc(C#CC(C)(C)O)nc3[C@H](Cc3cc(F)cc(F)c3)NC(=O)Cn3nc(C(F)F)c4c3C3CC3CC4)c21 (stereo partly drawn) [Compound 83, N—((S)-1-(3-(4-chloro-1-methyl-3-(methylsulfonamido)-1H-indazol-7-yl)-6-(3-hydroxy-3-methylbut-1-yn-1-yl)pyridin-2-yl)-2-(3,5-difluorophenyl)ethyl)-2-(3-(difluoromethyl)-5,5a,6,6a-tetrahydrocyclopropa[g]indazol-1(4H)-yl)acetamide] | 94% | 94% | 9.94 µM
CC(C)(O)C#Cc1ccc(-c2ccc(Cl)n3c(N)nnc23)c([C@H](Cc2cc(F)cc(F)c2)NC(=O)Cn2nc(C(F)(F)F)c3c2C(F)(F)[C@@H]2C[C@H]32)n1 [Compound 111, N—((S)-1-(3-(3-amino-5-chloro-[1,2,4]triazolo[4,3-a]pyridin-8-yl)-6-(3-hydroxy-3-methylbut-1-yn-1-yl)pyridin-2-yl)-2-(3,5-difluorophenyl)ethyl)-2-((3b-S,4aR)-5,5-difluoro-3-(trifluoromethyl)-3b,4,4a,5-tetrahydro-1H-cyclopropa[3,4]cyclopenta[1,2-c]pyrazol-1-yl)acetamide] | 89% | 90% | 9.59 µM
Cn1nc(NS(C)(=O)=O)c2c(F)ccc(-c3ccc(C#CC(C)(C)O)nc3[C@H](Cc3cc(F)cc(F)c3)NC(=O)Cn3nc(C(F)(F)F)c4c3C(F)(F)[C@@H]3C[C@H]43)c21 [Compound 132C, 2-((3bS,4aR)-5,5-difluoro-3-(trifluoromethyl)-3b,4,4a,5-tetrahydro-1H-cyclopropa[3,4]cyclopenta[1,2-c]pyrazol-1-yl)-N—((S)-2-(3,5-difluorophenyl)-1-(3-(4-fluoro-1-methyl-3-(methylsulfonamido)-1H-indazol-7-yl)-6-(3-hydroxy-3-methylbut-1-yn-1-yl)pyridin-2-yl)ethyl)acetamide] | 92% | 92% | 24.2 µM
CC(C)n1cc(-c2ccc(-c3ccc(Cl)c4c(NS(C)(=O)=O)nn(C)c34)c([C@H](Cc3cc(F)cc(F)c3)NC(=O)Cn3nc(C(F)(F)F)c4c3C(F)(F)[C@@H]3C[C@H]43)n2)cn1 [Compound 174, N—((S)-1-(3-(4-chloro-1-methyl-3-(methylsulfonamido)-1H-indazol-7-yl)-6-(1-isopropyl-1H-pyrazol-4-yl)pyridin-2-yl)-2-(3,5-difluorophenyl)ethyl)-2-((3bS,4aR)-5,5-difluoro-3-(trifluoromethyl)-3b,4,4a,5-tetrahydro-1H-cyclopropa[3,4]cyclopenta[1,2-c]pyrazol-1-yl)acetamide] | 85% | 85% | > 53.2 µM
Cn1nc(NS(C)(=O)=O)c2c(Cl)ccc(-c3cc(-c4cccnc4)cnc3[C@H](Cc3cc(F)cc(F)c3)NC(=O)Cn3nc(C(F)F)c4c3C(F)(F)[C@@H]3C[C@H]43)c21 [Compound 185C, N—((S)-1-(5-(4-chloro-1-methyl-3-(methylsulfonamido)-1H-indazol-7-yl)-[3,3′-bipyridin]-6-yl)-2-(3,5-difluorophenyl)ethyl)-2-((3bS,4aR)-3-(difluoromethyl)-5,5-difluoro-3b,4,4a,5-tetrahydro-1H-cyclopropa[3,4]cyclopenta[1,2-c]pyrazol-1-yl)acetamide] | 89% | 89% | 18.2 µM
Cn1nc(NS(C)(=O)=O)c2c(Cl)ccc(-c3ccc(C#CC(C)(C)O)nc3[C@H](Cc3cc(F)cc(F)c3)NC(=O)Cn3nc(C#N)c4c3C(F)(F)[C@@H]3C[C@H]43)c21 [Compound 159, N—((S)-1-(3-(4-chloro-1-methyl-3-(methylsulfonamido)-1H-indazol-7-yl)-6-(3-hydroxy-3-methylbut-1-yn-1-yl)pyridin-2-yl)-2-(3,5-difluorophenyl)ethyl)-2-((3bS,4aR)-3-cyano-5,5-difluoro-3b,4,4a,5-tetrahydro-1H-cyclopropa[3,4]cyclopenta[1,2-c]pyrazol-1-yl)acetamide] | 95% | 95% | 27.4 µM
CC(C)(O)C#Cc1ccc(-c2ccc3[nH]nc(N)c3c2)c([C@H](Cc2cc(F)cc(F)c2)NC(=O)Cn2nc(C(F)(F)F)c3c2C(F)(F)[C@@H]2C[C@H]32)n1 [Compound 46, N—((S)-1-(3-(3-amino-1H-indazol-5-yl)-6-(3-hydroxy-3-methylbut-1-yn-1-yl)pyridin-2-yl)-2-(3,5-difluorophenyl)ethyl)-2-((3b-S,4aR)-5,5-difluoro-3-(trifluoromethyl)-3b,4,4a,5-tetrahydro-1H-cyclopropa[3,4]cyclopenta[1,2-c]pyrazol-1-yl)acetamide] | 87% | 89% | 10.5 µM
